Reference: PubChem BioAssay (NCI)
Where “and” joins values, the source holds several entries; their conditions need not be identical. Identical values can stand only once.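 The compound was tested at five concentrations on cells cultured in 96-well plates, with a 48-hour exposure period. GI50 is the concentration that inhibits growth by half. TGI denotes the concentration required for complete inhibition of growth.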

Legend:
Experiment in all cases: DTP human tumour cell line panel, 48 h
786-0 renal = tested on: 786-0 renal
ACHN renal = tested on: ACHN renal
BT-549 breast = tested on: BT-549 breast
COLO 205 colon = tested on: COLO 205 colon
HCT-15 colon = tested on: HCT-15 colon
HS 578T breast = tested on: HS 578T breast
IGROV1 ovarian = tested on: IGROV1 ovarian
MOLT-4 leukemia = tested on: MOLT-4 leukemia
NCI-H23 lung = tested on: NCI-H23 lung
OVCAR-8 ovarian = tested on: OVCAR-8 ovarian
U251 CNS = tested on: U251 CNS

Row | Structure (SMILES) | TGI (786-0 renal) | TGI (ACHN renal) | TGI (BT-549 breast) | TGI (COLO 205 colon) | TGI (HCT-15 colon) | TGI (HS 578T breast) | TGI (IGROV1 ovarian) | TGI (MOLT-4 leukemia) | TGI (NCI-H23 lung) | TGI (OVCAR-8 ovarian) | TGI (U251 CNS) | GI50 (BT-549 breast) | GI50 (COLO 205 colon) | GI50 (IGROV1 ovarian) | GI50 (U251 CNS)
1 | CN(/N=C/c1ccnc2ccccc12)c1ccc(Cl)cc1[N+](=O)[O-] | > 100 µM | > 100 µM | > 100 µM | > 100 µM | > 100 µM | 52.2 µM | > 100 µM | > 100 µM | > 100 µM | > 100 µM | > 100 µM |  |  |  | 
2 | COc1ccc(C2SCC(=O)N2NC(=O)c2ccc(NC(C)=O)cc2)cc1 (centres undefined) | > 100 µM | > 100 µM | > 100 µM | > 100 µM | > 100 µM | > 100 µM | > 100 µM | > 100 µM | > 100 µM | > 100 µM | > 100 µM |  |  |  | 
3 | CC1=Nc2sc3c(c2C2=NCCN12)CCCC3 | 46 µM | 69.9 µM | 43.4 µM | 79.1 µM | > 100 µM | 91.1 µM | 60.7 µM | 60.5 µM | 46.3 µM | 50.6 µM | 70.7 µM |  |  |  | 
4 | CC(=O)OC1COC(Nc2nc(NCc3ccccc3)n(C)c(=O)c2N=O)C(OC(C)=O)C1OC(C)=O (centres undefined) | > 10 µM | > 10 µM | > 10 µM | > 10 µM | > 10 µM | > 10 µM | > 10 µM | > 10 µM | > 10 µM | > 10 µM | > 10 µM |  |  |  | 
5 | O=C(N/N=C1/C(=O)c2c3ccccc3cc3cccc1c23)c1ccccc1 | 43.1 µM | > 67.4 µM | > 100 µM | > 100 µM | > 100 µM | > 73.2 µM | 85.5 µM | > 100 µM | > 100 µM | > 92.3 µM | 98.3 µM |  |  |  | 
6 | CC1OC(OC2C(OC(=O)[C@]34CCC(C)(C)C[C@H]3C3=CC[C@@H]5[C@@]6(C)CC[C@H](OC7OC(C(=O)O)C(O)C(OC8OCC(O)C(O)C8O)C7O)C(C)(C)[C@@H]6CC[C@@]5(C)[C@]3(C)CC4)OCC(O)C2O)C(O)C(OC2OCC(O)C(O)C2O)C1OC1OCC(O)C(OC2OCC(O)C(O)C2O)C1O (some centres undefined) | 25.7 µM and 43 µM | 19.6 µM and 25.1 µM | 25.6 µM and 46.8 µM | 3.63 µM and 20.4 µM | 32.2 µM and 42.4 µM | 37.9 µM and 62.4 µM | 32.6 µM and > 100 µM | 25 µM and 49.8 µM | 21.7 µM and 33 µM | 27.7 µM and 43.1 µM | 24.8 µM and 62 µM | 9.13 µM and 20.3 µM | 1.8 µM and 7.67 µM | 11.8 µM and 30.9 µM | 10.9 µM and 24.2 µM
7 | CCCCCCCCCCCCCCCCOC[C@@H](COC(c1ccccc1)(c1ccccc1)c1ccccc1)O[P+](=S)OC (some centres undefined) | 19.1 µM | 29 µM | 16.7 µM | 38.6 µM | 22.4 µM | 82.6 µM | 36 µM | 53.1 µM | 23.7 µM | 48.9 µM | 17.6 µM |  |  |  | 
8 | CCOC(=O)C(Cc1cccn1C(=O)OC(C)(C)C)[N+](=O)[O-] (centres undefined) | 51.3 µM | 47.5 µM | > 100 µM | 41.3 µM | 62.3 µM | 75.9 µM | 43.3 µM | 50.4 µM | > 100 µM | 93 µM | 50.9 µM |  |  |  | 
9 | CC(C)=CCC/C(C)=C/CC/C(C)=C/CC/C(=C/CC/C(C)=C\CC/C(C)=C/CC/C(C)=C/CC/C(C)=C/Cc1cc(O)ccc1O)CO | 9.66 µM | 34.9 µM | 12.5 µM | 7.87 µM | 39 µM | 8.44 µM | 10.9 µM | > 59.5 µM | 4.89 µM | 13.5 µM | > 28.5 µM |  |  |  | 
10 | O=c1c(=O)c2c(Br)sc(Br)c2c1=O | 56.5 µM | 44.7 µM | 36.6 µM | 38.6 µM | 40.1 µM | > 100 µM | 34.7 µM | 48.3 µM | 40.6 µM | 37.4 µM | 61 µM |  |  |  | 
11 | COc1ccc(OC)c(NS(=O)(=O)c2ccc3nc(C)n(NS(=O)(=O)c4cc(OC)ccc4OC)c(=O)c3c2)c1 | > 100 µM | > 100 µM | > 100 µM | > 100 µM | > 100 µM | > 100 µM | > 100 µM | 62.7 µM | > 100 µM | > 100 µM | > 100 µM |  |  |  | 
12 | CC(C)C(/C=C/c1ccc(Cl)c(Cl)c1)=N\NC(=O)N/N=C(/C=C/c1ccc(Cl)c(Cl)c1)C(C)C | > 100 µM | > 100 µM | > 100 µM | > 100 µM | > 100 µM | > 100 µM | > 100 µM | > 100 µM | > 100 µM | > 100 µM | > 100 µM |  |  |  | 
13 | Nc1nn2c(nc(N)c3c(N)[nH]nc32)c1N=Nc1ccc(Br)cc1 | > 95.3 µM | > 100 µM | 15.5 µM | > 100 µM | > 100 µM | > 100 µM | > 100 µM | > 25.9 µM | > 7.37 µM | > 97.1 µM | 30.7 µM |  |  |  | 
14 | Clc1ccc(C2Nc3ccccc3C3=NCCN32)cc1 (centres undefined) | 48.9 µM | > 100 µM | 56.5 µM | 25.7 µM | > 100 µM | > 100 µM | 49.2 µM | > 100 µM | 55.4 µM | 38.3 µM | 78.6 µM |  |  |  | 
15 | CCCCON1C[C@H](OC(C)=O)C(OC(C)=O)[C@H](OC(C)=O)C1 (some centres undefined) | > 100 µM | > 100 µM | > 100 µM | > 100 µM | > 100 µM | > 100 µM | > 100 µM | > 100 µM | > 100 µM | > 100 µM | > 100 µM |  |  |  | 
16 | O=C(O)Cc1ccc2[nH]c(O)c(C3=Nc4ccccc4C3=O)c2c1 | > 100 µM | > 100 µM | > 100 µM | 92.1 µM | > 100 µM | 77.5 µM | 48.2 µM | > 100 µM | > 100 µM | > 100 µM | > 100 µM |  |  |  | 
17 | O=C(CNc1ccccc1[N+](=O)[O-])Nn1c(-c2ccccc2)nc2ccccc2c1=O | 34.5 µM | 56.9 µM | 35.3 µM | 53.9 µM | 44.3 µM | > 100 µM | 34.8 µM | 49.8 µM | 76.5 µM | > 100 µM | 40.6 µM |  |  |  | 
18 | O=[N+]([O-])c1ccc(C=NCC2CCCN3CCCCC23)cc1 (centres undefined) | 52.1 µM | > 100 µM | > 100 µM | > 100 µM | > 100 µM | > 100 µM | > 100 µM | > 100 µM | > 100 µM | > 100 µM | > 100 µM |  |  |  | 
19 | CC(=O)OCC1OC(Oc2cc(C)c(O)cc2C/C=C(\C)CC/C=C(\C)CC(=O)CC(C)C)C(O)C(OC(C)=O)C1OC(C)=O (centres undefined) | > 50 µM | 44.9 µM | 31.2 µM | 17.3 µM | > 50 µM | 35.2 µM | > 50 µM | 19.5 µM | 18.8 µM | > 50 µM | 41.9 µM |  |  |  | 
20 | CCOC(=O)C(NC(=O)c1ccccc1)(N1CCOCC1)C(F)(F)F (centres undefined) | > 100 µM | > 100 µM | > 100 µM | > 100 µM | > 100 µM | > 100 µM | > 100 µM | > 100 µM | > 100 µM | > 100 µM | > 100 µM |  |  |  | 
